Read-outs that look alike come from different tables or passages of the source.
How the values were obtained:
Format in all cases: cell-based
Huh7 = assay: Cancer cell proliferation inhibition, MTS assay, 72 hours; conditions: Homo sapiens, Huh-7
Experimental: (§1) MTS assay was performed to evaluate the cancer cell proliferation inhibition (cancer cell apoptosis) effect of the compounds of examples of the present invention. Particularly, the assay was performed using the cancer cell lines GIST-T1, GIST-T1/816, GIST-430, GIST-430/654, GIST-R1, GIST-R3, M-NFS-60, RetParental (Ba/F3), Retwt (Ba/F3), RetV804M (Ba/F3), RET (LC2/ad-CDC6), FYN (MCP-1), FYN (FN), MDA-MB-231, Huh7, K562, T315I(Ba/F3), SK-MEL-28 and A375. Cell culture was performed using a medium suitable for each cell line.
(§2) Other cell lines were seeded in a 96-well plate containing the corresponding medium appropriate for each cell line at the density of 3,000 cells/well, followed by culture in a 5% CO2 and 37° C. incubator for 24 hours. The compounds of examples of the present invention were added to each well at the concentration of from the highest volume of 50 μM to every step of serial dilution. The solvent control, dimethylsulfoxide (DMSO), was treated at the same concentration of 0.05% (v/v) as the volume used for the treatment of the compounds above. Each cell line was cultured for 72 hours. To investigate the cell viability, the MTS and PMS (phenazine methosulfate) mixture provided in CellTiter 96® AQuous Non-Radioactive Cell Proliferation Assay Kit (Promega) was added to each cell culture medium, followed by additional culture at 37° C. for 2 hours. Then, OD450 was measured. Based on OD of the solvent control cells not treated with any compounds of the present invention, the cell proliferation inhibition rate was calculated according to the treatment concentration of each compound. At this time, the concentration of each compound that was able to inhibit cancer cell proliferation up to 50% was determined as IC50 (uM). IC50 of each compound was determined with three data sets and calculated by using Prism softwater (version 6.01, GraphPad).

MDA-MB-231 = assay: Real time cell proliferation, IncuCyte ZOOM, 72 hours
A375 = assay: Cancer cell proliferation inhibition, CCK-8, 72 hours
Experimental: as §1
(§3) In the meantime, MDA-MB-231 and A375 cells were seeded in a 96well plate at the density of 2×10^3/100 μl/well, which stood for a day for attachment. The culture fluid was eliminated. After removing the culture medium, the medium was replaced with the culture medium containing the compounds of the present invention at 3-times serially diluted 9 concentrations (0.0015-10 μM) and the DMSO control, followed by incubation in a 37° C. CO2 incubator for 72 hours. On the other hand, K-562 and Ba/F3-T315I cells were seeded in a 96-well plate at the density of 1×10^4/90 μl/well. The plate containing K-562 cells was added with the culture medium containing the compounds of the present invention at 3-times serially diluted 9 concentrations (0.015-100 μM) and the DMSO control (10 μl/well). The plate containing Ba/F3-T315I cells was added with the culture medium containing the compounds of the present invention at 5-times serially diluted 9 concentrations (0.000256-100 μM) and the DMSO control (10 μl/well). The final concentration was made 0-10 μM and then the cells were cultured in a 37° C. CO2 incubator for 72 hours.
(§4) A375, K-562 and Ba/F3-T315I cells were added with CCK-8 solution at the concentration of 10 μl/well, followed by orbital shaking for 30 seconds. Then, the cells were cultured in a 37° C. CO2 incubator for 2 hours. OD450 was measured by using a microplate reader. The OD value of the well treated with the culture medium and CCK-8 solution alone was subtracted from the OD value measured above, followed by calculation of IC50 using GraphPad Prism 6 software.

K562 = assay: as above
Experimental: as §1, §3, §4

T315I (Ba/F3) = molecular target: T1, T315I (Ba/F3) (Homo sapiens, UniProt P00519, T315I, cells depend on it); assay: as above; conditions: read-out: T315I (Ba/F3) IC50
T1 construct: fused on or other part: P11274 (Breakpoint cluster region protein)
Experimental: as §1, §3, §4

RET (LC2/ad-CDC6) = assay: Cancer cell proliferation inhibition, MTS assay, 72 hours; conditions: 72 h
Experimental: as §1, §2

Structure (SMILES)	IC50 (Huh7)	IC50 (MDA-MB-231; Homo sapiens, MDA-MB-231, 72 h)	IC50 (A375; Homo sapiens, A-375, 72 h)	IC50 (K562; Homo sapiens, K562, 72 h)	GI50 (T315I (Ba/F3))	IC50 (RET (LC2/ad-CDC6))	IC50 (MDA-MB-231)	IC50 (A375)	IC50 (K562)
Cc1ccc(C(=O)Nc2ccc3ncsc3c2)cc1C#Cc1cnc2c(Nc3cnn(C)c3)cccn12 [Example 37, N-(benzo[d]thiazol-6-yl)-4-methyl-3-((8-((1-methyl-1H-pyrazol-4-yl)amino)imidazo[1,2-a]pyridin-3-yl)ethynyl)benzamide]	1800 nM	> 10000 nM	> 10000 nM	2 nM	663 nM				
Cc1ccc(C(=O)Nc2ccc(CN3CCCN(C)CC3)c(C(F)(F)F)c2)cc1C#Cc1cnc2c(Nc3cnn(C(C)C)c3)cccn12 [Example 38, 3-((8-((1-isopropyl-1H-pyrazol-4-yl)amino)imidazo[1,2-a]pyridin-3-yl)ethynyl)-4-methyl-N-(4-((4-methyl-1,4-diazepin-1-yl)methyl)-3-(trifluoromethyl)phenyl)benzamide]	247 nM	770 nM	668 nM	19 nM	133 nM				
Cc1ccc(C(=O)Nc2ccc(CN3CCCN(C)CC3)c(C(F)(F)F)c2)cc1C#Cc1cnc2c(Nc3cnn(CCCN(C)C)c3)cccn12 [Example 39, 3-((8-((1-(3-(dimethylamino)propyl)-1H-pyrazol-4-yl)amino)imidazo[1,2-a]pyridin-3-yl)ethynyl)-4-methyl-N-(4-((4-methyl-1,4-diazepin-1-yl)methyl)-3-(trifluoromethyl)phenyl)benzamide]	457 nM	1460 nM	1520 nM	43 nM	238 nM				
Cc1cc(Nc2cccn3c(C#Cc4cc(C(=O)Nc5ccc(CN6CCC(N(C)C)C6)c(C(F)(F)F)c5)ccc4C)cnc23)no1 (stereo not shown) [Example 45, N-(4-((3-(dimethylamino)pyrrolidin-1-yl)methyl)-3-(trifluoromethyl)phenyl)-4-methyl-3-((8-((5-methylisoxazol-3-yl)amino)imidazo[1,2-a]pyridin-3-yl)ethynyl)benzamide]		816 nM	720 nM	2 nM	145 nM	> 10 nM			
COCCCn1cc(Nc2cccn3c(C#Cc4cc(C(=O)Nc5ccc(CN6CCN(C)[C@@H](C)C6)c(C(F)(F)F)c5)ccc4C)cnc23)cn1 [Example 46, (S)—N-(4-((3,4-dimethylpiperazin-1-yl)methyl)-3-(trifluoromethyl)phenyl)-3-((8-((1-(3-methoxypropyl)-1H-pyrazol-4-yl)amino)imidazo[1,2-a]pyridin-3-yl)ethynyl)-4-methylbenzamide]		273 nM	250 nM	7 nM	6.27 nM	> 10 nM			
Cc1ccc(C(=O)Nc2ccc(CN3CCN(C)[C@@H](C)C3)c(C(F)(F)F)c2)cc1C#Cc1cnc2c(Nc3cnn(C(C)C)c3)cccn12 [Example 48, (S)—N-(4-((3,4-dimethylpiperazin-1-yl)methyl)-3-(trifluoromethyl)phenyl)-3-((8-((1-isopropyl-1H-pyrazol-4-yl)amino)imidazo[1,2-a]pyridin-3-yl)ethynyl)-4-methylbenzamide]		382 nM	406 nM	< 1 nM	86.3 nM	> 10 nM			
Cc1ccc(C(=O)Nc2ccc(CN3CCN(C)[C@@H](C)C3)c(C(F)(F)F)c2)cc1C#Cc1cnc2c(Nc3cnn(CCCN(C)C)c3)cccn12 [Example 49, (S)-3-((8-((1-(3-(dimethylamino)propyl)-1H-pyrazol-4-yl)amino)imidazo[1,2-a]pyridin-3-yl)ethynyl)-N-(4-((3,4-dimethylpiperazin-1-yl)methyl)-3-(trifluoromethyl)phenyl)-4-methylbenzamide]		513 nM	1020 nM	5 nM	217 nM	> 10 nM			
CCn1cc(Nc2cccn3c(C#Cc4cc(C(=O)Nc5ccc(CN6CC[C@@H](N(C)C)C6)c(C(F)(F)F)c5)ccc4C)cnc23)cn1 [Example 53, (R)—N-(4-((3-(dimethylamino)pyrrolidin-1-yl)methyl)-3-(trifluoromethyl)phenyl)-3-((8-((1-ethyl-1H-pyrazol-4-yl)amino)imidazo[1,2-a]pyridin-3-yl)ethynyl)-4-methylbenzamide]		324 nM	285 nM	< 1 nM	2.67 nM	> 10 nM			
CCn1cc(Nc2cccn3c(C#Cc4cc(C(=O)Nc5ccc(CN6CC[C@H](N(C)C)C6)c(C(F)(F)F)c5)ccc4C)cnc23)cn1 [Example 54, (S)—N-(4-((3-(dimethylamino)pyrrolidin-1-yl)methyl)-3-(trifluoromethyl)phenyl)-3-((8-((1-ethyl-1H-pyrazol-4-yl)amino)imidazo[1,2-a]pyridin-3-yl)ethynyl)-4-methylbenzamide]		388 nM	454 nM	< 1 nM	30.9 nM	> 10 nM			
CCn1cc(Nc2cccn3c(C#Cc4cc(C(=O)Nc5ccc(N6CCOCC6)c(F)c5)ccc4C)cnc23)cn1 [Example 56, 3-((8-((1-ethyl-1H-pyrazol-4-yl)amino)imidazo[1,2-a]pyridin-3-yl)ethynyl)-N-(3-fluoro-4-morpholinophenyl)-4-methylbenzamide]		> 10000 nM	> 10000 nM	< 1 nM	1140 nM	> 10 nM			
COCCCn1cc(Nc2cccn3c(C#Cc4cc(C(=O)Nc5ccc(CN6CCN(C)CC6)c(C(F)(F)F)c5)ccc4C)cnc23)cn1 [Example 65]	33 nM	219 nM	221 nM	< 1.5 nM		> 10 nM			
COCCn1cc(Nc2cccn3c(C#Cc4cc(C(=O)Nc5cc(-n6cnc(C)c6)cc(C(F)(F)F)c5)ccc4C)cnc23)cn1 [Example 71]	955 nM	4730 nM		6 nM	25.2 nM				
CCN1CCN(Cc2ccc(NC(=O)c3ccc(C)c(C#Cc4cnc5c(Nc6cnn(CCN(C)C)c6)cccn45)c3)cc2C(F)(F)F)CC1 [Example 73]		916 nM		< 1.5 nM	421 nM				
Cc1ccc(NC(=O)C2(C(=O)Nc3ccc(F)cc3)CC2)cc1C#Cc1cnc2c(Nc3cnn(C)c3)cccn12 [Example 79]	5650 nM	> 10000 nM	> 10000 nM	763 nM	5410 nM				
Cc1ccc(C(=O)Nc2ccc(CN3CCN(C)[C@H](C)C3)c(C(F)(F)F)c2)cc1C#Cc1cnc2c(Nc3cnn(C(C)C)c3)cccn12 [Example 81, (R)—N-(4-((3,4-dimethylpiperazin-1-yl)methyl)-3-(trifluoromethyl)phenyl)-3-((8-((1-isopropyl-1H-pyrazol-4-yl)amino)imidazo[1,2-a]pyridin-3-yl)ethynyl)-4-methylbenzamide]					190 nM		1730 nM	1960 nM	43 nM
Cc1ccc(NC(=O)Nc2cc(C(C)(C)C(F)(F)F)on2)cc1C#Cc1cnc2c(Nc3cnn(C(C)C)c3)cccn12 [Example 85, 1-(3-((8-((1-isopropyl-1H-pyrazol-4-yl)amino)imidazo[1,2-a]pyridin-3-yl)ethynyl)-4-methylphenyl)-3-(5-(1,1,1-trifluoro-2-methylpropan-2-yl)isoxazol-3-yl)urea]		> 10000 nM	> 10000 nM	290 nM	3080 nM	> 10 nM			
